Biological target: T1, IRAK-4 (Homo sapiens, UniProt Q9NWZ3)
T1 sequence (Q9NWZ3 1-460): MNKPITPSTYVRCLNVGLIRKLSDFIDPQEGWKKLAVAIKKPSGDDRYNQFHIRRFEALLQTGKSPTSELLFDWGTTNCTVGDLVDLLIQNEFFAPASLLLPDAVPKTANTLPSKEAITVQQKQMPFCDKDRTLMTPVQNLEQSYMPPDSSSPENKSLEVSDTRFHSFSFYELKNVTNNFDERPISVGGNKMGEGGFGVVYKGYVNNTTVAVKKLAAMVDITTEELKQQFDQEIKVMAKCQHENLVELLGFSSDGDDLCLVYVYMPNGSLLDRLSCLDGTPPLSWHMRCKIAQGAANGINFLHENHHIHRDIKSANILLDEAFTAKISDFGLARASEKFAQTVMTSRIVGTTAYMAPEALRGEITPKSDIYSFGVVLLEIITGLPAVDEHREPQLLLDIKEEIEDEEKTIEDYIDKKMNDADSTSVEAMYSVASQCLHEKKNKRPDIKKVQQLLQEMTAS
Assay: IRAK-4 activity inhibition assay (Caliper)
Assay type: biochemical
Details: 3.5 nM IRAK4, 37 μM ATP, 1.5 μM Peptide 8, 28° C. 40 minutes
Description: A 1× kinase base buffer was prepared from 50 mM HEPES, pH 7.5 and 0.0015% Brij-35. A stop buffer was prepared from 100 mM HEPES, pH 7.5, 0.015% Brij-35, 0.2% Coating Reagent #3, and 50 mM EDTA.
Test compound was diluted to 50× of the final desired highest inhibitor concentration in reaction by 100% DMSO. 100 ul of this compound dilution was transferred to a well in a 96-well plate.
Test compound was serially diluted by transferring 30 μl to 60 μl of 100% DMSO in the next well and so forth for a total of 10 concentrations. 100 μl of 100% DMSO was added to two empty wells for no compound control and no enzyme control in the same 96-well plate.
A new 96-well plate was marked as intermediate plate. 5 μl of compound serial dilution was transferred from source plate to the corresponding wells of the intermediate plate. 45 μl of 1× kinase base buffer (KB buffer) was added to each well of the intermediate plate. The intermediate plate was placed for 10 min on a shaker.
5 μl of each well was transferred from the 96-well intermediate plate to a 384-well plate in duplicates. For example, A1 of the 96-well plate is transferred to A1 and A2 of the 384-well plate. A2 of the 96-well plate is transferred to A3 and A4 of the 384-well plate, and so on.
IRAK4 and DTT in 1× kinase base buffer was added. The 2.5× enzyme mix contained 8.8 nM IRAK4 and 5 mM DTT.
Peptide 8, ATP, MgCl2 and MnCl2 were added in the 1× kinase base buffer. The 2.5× peptide mix contained 3.75 μM peptide 8, 92.5 μM ATP, 12.5 mM MgCl2 and 2.5 mM MnCl2.
Assay plate already contained 5 μl of compound in 10% DMSO. Added 10 μl of 2.5× enzyme solution to each well of the 384-well assay plate, except no enzyme control wells. The final concentration of IRAK4 in reaction was 3.5 nM. Added 10 μl of 1× kinase base buffer to no enzyme control wells in the assay plate. Incubated at room temperature for 10 min.
Added 10 μl of 2.5× peptide solution to each well of the 384-well assay plate. The final concentration of Peptide 8 and ATP was 1.5 μM and 37 μM, respectively. Incubated at 28° C. for 40 minutes. Added 25 μl of stop buffer to stop reaction. Collected data on Caliper.
Copied conversion % data from Caliper program. Converted conversion % values to percent inhibition values. Percent inhibition=(max−conversion %)/(max−min)*100, where “max” means the conversion % of DMSO control and “min” means the conversion % of no enzyme control.

Row | SMILES | IC50 [µM]
1 | N[C@H]1CC[C@H](Nc2ccnc3sc4c(c23)CCC4)CC1 [Compound I-205] | ≤ 5
2 | c1cc(O[C@H]2CC[C@H](N3CCOCC3)CC2)c2c3c(sc2n1)CCC3 [Compound I-3] | ≤ 5
3 | Cn1cc(Nc2cc(N[C@H]3CC[C@H](N4CCOCC4)CC3)c3c4c(sc3n2)CCC4)cn1 [Compound I-208, N2-(1-methyl-1H-pyrazol-4-yl)-N4-((1r,4r)-4-morpholinocyclohexyl)-6,7-dihydro-5H-cyclopenta[4,5]thieno[2,3-b]pyridine-2,4-diamine] | 20 to 50
4 | CN(C)[C@H]1CC[C@H](Nc2ccnc3sc4c(c23)CCC4)CC1 [Compound I-4, 1-N,1-N-dimethyl-4-N-[7-thia-9-azatricyclo[6.4.0.0^[2,6]]dodeca-1(12),2(6),8,10-tetraen-12-yl]cyclohexane-1,4-diamine] | ≤ 5
5 | CN(CC(=O)N1CCCC1)[C@H]1CC[C@H](Nc2ccnc3sc4c(c23)CCC4)CC1 [Compound I-207, 2-[methyl[4-([7-thia-9-azatricyclo[6.4.0.0[2,6]]dodeca-1(8),2(6),9,11-tetraen-12yl]amino)cyclohexyl]amino]-1-(pyrrolidin-1-yl)ethan-1-one] | ≤ 5

Now from value to molecule:

Row | IC50 [µM] | SMILES
6 | ≤ 5 | CN[C@H]1CC[C@H](Nc2ccnc3sc4c(c23)CCC4)CC1 [Compound I-206, 1-N-methyl-4-N-[7-thia-9-azatricyclo[6.4.0.0[2,6]]dodeca-1(12),2(6),8,10-tetraen-12-yl]cyclohexane-1,4-diamine]
7 | ≤ 5 | CN(C)[C@H]1CC[C@H](Oc2ccnc3sc4c(c23)CCC4)CC1 [Compound I-1]
8 | ≤ 5 | c1cc(N[C@H]2CC[C@H](N3CCOCC3)CC2)c2c3c(sc2n1)CCC3 [Compound I-2]
